Results as given in patent US20180333382A1, “PHARMACEUTICAL COMPOSITIONS COMPRISING DGLA AND USE OF SAME” (DS Biopharma Limited, priority 2017, published 2018).
Several values for one entry are separate records, joined by “and”; a condition that tells them apart may be missing. Identical values can stand only once.

Tests used:
[1] = tested on: patients with moderate to severe atopic dermatitis having high eosinophil levels; assay: Post hoc stratification of the phase II study: subgroup with high eosinophil > 0.3 × 10^9/L; assay type: in vivo, human; conditions: daily, 8 weeks
Method: Further to the randomized, double-blind, placebo-controlled, phase II study of Example 2 above, a post hoc stratification analysis was performed using the results of that study to assess the efficacy of orally administered DS107G (DGLA) to patients with moderate to severe atopic dermatitis having normal eosinophil levels of less than about 0.3×10^9/L compared to the same population receiving placebo and/or to the total study population. The primary objective of the post hoc stratification study was to compare the efficacy of orally administered DS107G capsules, versus placebo, in the treatment of adult patients with moderate to severe atopic dermatitis having normal eosinophil levels of less than about 0.3×10^9/L. The secondary objective was to compare the efficacy of orally administered DS107G capsules in the treatment of adult patients with moderate to severe atopic dermatitis having normal eosinophil levels of less than about 0.3×10^9/L versus the total study population. Unless stated otherwise, all elements of the post hoc stratification analysis were the same as those of the phase II study described in Example 2 above.
A comparison of the total study population (see column “DS107 Phase 2a I.T.T.”), patients having normal eosinophil levels, and patients having high eosinophil levels separated by patients who received DS107 or placebo is shown in Table 32 below.

[2] = tested on: spontaneous hypertensive rats; assay: Arterial pressure and phenylephrine-induced hypertensive response after seven days of gavage (DGLA, aspirin, DGLA + aspirin); assay type: in vivo, rat; conditions: for Mean arterial pressure at baseline, Average SAP / Mean arterial pressure with an intravenous dose of Phenylephrine 20 μg/kg, Average SAP / Mean arterial pressure at baseline, individual rats / Mean arterial pressure with an intravenous dose of Phenylephrine 20 μg/kg, individual rats: seven consecutive days of gavage; for Mean arterial pressure at baseline, individual rats / Mean arterial pressure with an intravenous dose of Phenylephrine 20 μg/kg, individual rats: Rat #1-#5; for Arterial pressure, Diastol / Arterial pressure, Systol / Mean systemic arterial pressure: seven days of gavage, before phenylephrine
Method: An in vivo investigation of anti-hypertension efficacy following co-administration of DGLA and aspirin in spontaneous hypertensive rats was conducted. This experiment investigated the efficacy of DGLA when co-administered chronically with aspirin to reduce the hypertensive response induced acutely by phenylephrine in spontaneous hypertensive rats. Spontaneously hypertensive adult male rats (250-300 g), bred by Charles River Laboratories, were used for this assay. The animals were identified upon arrival as per CCPA guidelines. The animals were pair-housed by group (low dose+aspirin, high dose+aspirin or aspirin alone) for the duration of the oral gavage prior to surgery. All animal care and vivarium maintenance was recorded, with documents kept at the test facility.
The concentrations of DGLA to be tested (50 and 500 mg/kg) as well as the concentration of aspirin (10 mg/kg) were selected by the Sponsor based on information available at the time of design of this study. They were selected to cover a range of concentrations useful for the identification of the mechanism of action of the test article.
All solution preparations were documented on a Solution Contents Form, defining labelling information and all relevant information on reagents: batch number, storage conditions, contents, and preparation/expiry dates.
The test article was formulated using olive oil as the vehicle. This stock solution was then administered by oral gavage once per day for seven consecutive days. A low and a high dose (50 mg/kg and 500 mg/kg) were tested.
A 5 mg/ml stock solution of aspirin was prepared by dissolving the appropriate amount of aspirin in 100% DMSO which was then diluted in water. The concentration of DMSO was less than 1%. The appropriate volume was administered by oral gavage to each animal once per day for seven consecutive days. The stock solution was stored at room temperature and was considered stable for the duration of the gavage.
The appropriate volume was administered to each animal by an intravenous injection at the end of the experiment on the surgery day. The stock solution was stored at 4° C. and was considered stable for the duration of the experiment.
A stock solution of phenylephrine of 1 mg/ml were prepared in PBS (pH=7.4±0.05). The stock solution was stored at 4° C. The expiration date was set at 14 days after preparation.
Male spontaneous hypertensive rats weighing approximately 300 g arrived at the facility at least two days before beginning the oral gavage. Animals were assigned to one of three groups (low dose+aspirin, high dose+aspirin, and aspirin), and were pair-housed during the acclimation period. Each group (n=4) received the appropriate compound by oral gavage using a 16 G feeding needle. The stock solution was administered once per day for seven consecutive days. On the seventh day of administration, the animals underwent surgery and hypertensive monitoring.
Rats were anesthetized with a 2.5-3.0% isoflurane-O2 mixture in an induction box. When the animals were removed from the induction box, they were connected onto a nose cone to maintain anesthesia during the tracheotomy. The animals were tracheotomised with an endotracheal tube (7 cm length from connector to the tip made with a PE205 tube from BD and a 16 G needle) to facilitate spontaneous breathing, stabilize hemodynamics, and to keep the rat under anesthesia with an isoflurane-O2 mixture. Two catheters were inserted: one in the right femoral artery for systemic arterial pressure (SAP) measurement, and one in the right femoral vein for delivery of the hypertensor and positive control. ECG signals were acquired with ECG contacts placed in a Lead-1 configuration on the anaesthetized animal, and a pulse oxymeter was attached to the animal's hind paw to enable continuous monitoring of the general condition of the rat during the surgical procedure.

## CCCCC/C=C\C/C=C\C/C=C\CCCCCCC(=O)O [DS107G, Dihomo gamma linolenic acid]
[1]
  BSA Change from Baseline: −14.9%
  EASI Percentage Change from Baseline: −20.1%
  EASI-50 (%): 22.7%
  EASI-75 (%): 9.1%
  IGA responder (%): 0%
  Pruritus Percentage Change from Baseline: −6.5%
[2]; DGLA 50 mg/kg
  Mean arterial pressure at baseline, Average SAP: 74.5 mm of Hg
  Mean arterial pressure with an intravenous dose of Phenylephrine 20 μg/kg, Average SAP: 115.7 mm of Hg
  Mean arterial pressure at baseline, individual rats: 51.77 mm of Hg and 87.81 mm of Hg and 62.11 mm of Hg and 86.01 mm of Hg and 84.93 mm of Hg
  Mean arterial pressure with an intravenous dose of Phenylephrine 20 μg/kg, individual rats: 91.82 mm of Hg and 137.84 mm of Hg and 105.44 mm of Hg and 132.68 mm of Hg and 110.72 mm of Hg
  Arterial pressure, Diastol: 75 mmHg
  Arterial pressure, Systol: 120 mmHg
  Mean systemic arterial pressure: 90 mmHg
[2]; DGLA 500 mg/kg
  Mean arterial pressure at baseline, Average SAP: 82.2 mm of Hg
  Mean arterial pressure with an intravenous dose of Phenylephrine 20 μg/kg, Average SAP: 112.1 mm of Hg
  Mean arterial pressure at baseline, individual rats: 64.81 mm of Hg and 91.55 mm of Hg and 94.41 mm of Hg and 66.56 mm of Hg and 93.64 mm of Hg
  Mean arterial pressure with an intravenous dose of Phenylephrine 20 μg/kg, individual rats: 105.21 mm of Hg and 119.33 mm of Hg and 118.12 mm of Hg and 97.17 mm of Hg and 120.82 mm of Hg
  Arterial pressure, Diastol: 80 mmHg
  Arterial pressure, Systol: 135 mmHg
  Mean systemic arterial pressure: 98 mmHg
[2]; DGLA 50 or 500 mg/kg alone, effect eliminated by aspirin
  effect on arterial pressure in spontaneously hypertensive rats: successfully decreases the arterial pressure
[2]; spontaneous hypertensive rats treated with DGLA alone, observed previously
  lowering of the mean systemic arterial blood pressure: up to 25%
